Experimental data as given in patent US5763479A, “Naphthoquinone derivatives for the treatment of chronic inflammation” (KS Biomedix Ltd., priority 1991, dated 1998).
Read-outs that look alike come from different tables or passages of the source.

What was measured:
[1] = redox potential (E1/8) against a standard calomel electrode; format: physicochemical; settings: for E1/2 (mV): Table 2
G6PD [2] = molecular target: T1, G6PD (Homo sapiens, UniProt P11413); experiment: decrease in G6PD activity in synovial lining cells of human rheumatoid tissue maintained in vitro; format: cell-based; parameters: synovial lining cells of human rheumatoid tissue maintained in vitro; from tissue; host or cells: human rheumatoid synovial tissue (synovial lining cells), maintained in vitro; settings: mean±SEM
Excerpt: The percentage decreases in […] activity (mean±SEM) in the synovial lining cells of human rheumatoid tissue maintained in vitro, induced by naphthoquinone of formula I (R=H, X=O), including compounds outside the scope of the invention, are given in Table 2.

[3] = system: glucose 6-phosphate dehydrogenase (G6PD); experiment: G6PD in synovial lining cells of arthritic rabbits (Example 2); format: in vivo, rabbit
Description: (§1) In each of separate groups of six, rabbits were treated with the same volume of either olive oil alone or dimethoxynaphthoquinone in olive oil for six weeks after the initiation of arthritis (six weeks after challenge). The treatment was 25 mg/kg orally twice a week.
(§2) The rabbits were investigated for the concentration of G6PD, 6PGL and 6PGD in synovial lining cells. The respective mean values (±SEM) for the treatment of olive oil alone were 15.4±1.9, 2.5±0.3 and 8.2±1.1; the results for those treated with dimethoxynaphthoquinone were 7.7±1.2, negligible and 4.6±1.1.

[4] = system: 6-phosphogluconolactonase (6PGL); experiment: 6PGL in synovial lining cells of arthritic rabbits (Example 2); format: in vivo, rabbit; settings: 25 mg/kg orally twice a week, six weeks; olive oil alone 2.5±0.3
Description: as §1, §2

[5] = system: 6-phosphogluconate dehydrogenase (6PGD); experiment: 6PGD in synovial lining cells of arthritic rabbits (Example 2); format: in vivo, rabbit; settings: 25 mg/kg orally twice a week, six weeks; olive oil alone 8.2±1.1
Description: as §1, §2

lysosomal latency = lysosomal latency before and after intra-articular injection in patients with chronic arthritic inflammation; format: in vivo, human; settings: before injection 0, normal around 40%
Description: (§3) Two human patients suffering from chronic arthritic inflammation were given intra-articular injections of menadione bisulphite. The G6PD activity (mean integrated extinction ×10^3 /10 min) and lysosomal latency (% bound activity) were measured before and after injection. The G6PD activity decreased from 423 to 188 in one case and from 245 to 127 in the other; the lysosomal latency increased, respectively from 0 to 13 and from 0 to 31 (normal values are around 40% latency).

G6PD [6] = molecular target: T1, G6PD; experiment: G6PD activity before and after intra-articular injection in patients with chronic arthritic inflammation; format: in vivo
Description: as §3

chronic RA = experiment: therapeutic efficacy by intra-articular injection in chronic RA patients; format: in vivo, human; settings: intra-articular injections
Excerpt: Other soluble compounds of the invention are menadiol diphosphate, menadiol disulphate and 2-methyl-1,4-naphthohydroquinone bis(hydrogen succinate), sodium salt.

[7] = chemical stability and reactivity; format: physicochemical; settings: no double bond between positions 2 and 3
[8] = system: glucose 6-phosphate dehydrogenase (G6PD); experiment: G6PD activity in synovial lining and desquamating cells of arthritic rabbits treated with menadione epoxide; format: in vivo, rabbit
Description: (§4) Twenty-two female New Zealand white rabbits (initial weight 1.5-2.0 kg) were immunised subcutaneously between the scapulae, with 0.5 ml of complete Freund's adjuvant containing 2.5 mg of ovalbumin (Sigma). A booster inoculation was given two weeks later. Four weeks after this, the right knee was challenged with an intra-articular injection (0.5 ml) of sterile saline containing ovalbumin (10 mg/ml). One week before this; twice a week for the next two weeks; and weekly thereafter, the temperature of both knees was measured on the medial side of the patella by means of a Digi-Sense thermocouple thermometer (Cole-Palmer Instrument Co., Chicago, Ill., U.S.A.). They were skin-tested before challenge to ensure that the cell-mediated immunity was equivalent in the treated and control rabbits. […] They were killed in pairs, treated and untreated, by intravenous injection of phenobarbitone sodium at various intervals from five to nine weeks later. After removal, the synovial tissue was cut into pieces of not greater than 0.5 cm^3; these were immersed for up to 1 min in a 5% solution of polyvinyl alcohol containing 5% CaCl2.2H2 O (Chayen et al, 1973) and then chilled to -70 ° C. in n-hexane (BDH: low in aromatic hydrocarbons grade). The tissue was stored in dry tubes at -70° C. and examined within two weeks. […]

[9] = system: 6-phosphogluconolactonase (6PGL); experiment: 6PGL activity in synovial lining and desquamating cells of arthritic rabbits treated with menadione epoxide; format: in vivo, rabbit
Description: as §4

challenged joint = experiment: established immune (ovalbumin) arthritis in rabbits, oral menadione epoxide: joint temperature and degree of inflammation; format: in vivo, rabbit (New Zealand white)
Description: Twenty-two female New Zealand white rabbits (initial weight 1.5-2.0 kg) were immunised subcutaneously between the scapulae, with 0.5 ml of complete Freund's adjuvant containing 2.5 mg of ovalbumin (Sigma). A booster inoculation was given two weeks later. Four weeks after this, the right knee was challenged with an intra-articular injection (0.5 ml) of sterile saline containing ovalbumin (10 mg/ml). One week before this; twice a week for the next two weeks; and weekly thereafter, the temperature of both knees was measured on the medial side of the patella by means of a Digi-Sense thermocouple thermometer (Cole-Palmer Instrument Co., Chicago, Ill., U.S.A.). They were skin-tested before challenge to ensure that the cell-mediated immunity was equivalent in the treated and control rabbits. […] They were killed in pairs, treated and untreated, by intravenous injection of phenobarbitone sodium at various intervals from five to nine weeks later. After removal, the synovial tissue was cut into pieces of not greater than 0.5 cm^3; these were immersed for up to 1 min in a 5% solution of polyvinyl alcohol containing 5% CaCl2.2H2 O (Chayen et al, 1973) and then chilled to -70 ° C. in n-hexane (BDH: low in aromatic hydrocarbons grade). The tissue was stored in dry tubes at -70° C. and examined within two weeks.
Sections were cut (10 μm) in a Bright's cryostat (cabinet temperature of -30° C.) with the knife cooled with solid carbon dioxide. The sections were flash-dried on to slides taken from the ambient temperature of the laboratory (Chayen et al, 1973) and stored briefly in a desiccator before being tested for enzymatic activity.
Depending on the amount of tissue, sections were taken from up to fifteen regions of each challenged joint and stained with 0.1% toluidine blue in 0.1M acetate buffer, pH 6.1. They were assessed for thickening of the synovial lining cell layer; degree of infiltration by both chronic and acute inflammatory cells; and fibrosis. Each of these criteria was evaluated on a scale that ranged from 0 to ++. A value based on all these criteria was given for the response in each challenged joint and the degree of inflammation of the whole joint was assessed on an arbitrary scale of - to ++.

neotetrazolium chloride = settings: sections of various tissues; compared with phenazine methosulphate; cited from earlier work
immune arthritis = settings: rabbits fed by gavage, cited from earlier work
solubility = format: physicochemical

T1 sequence (P11413 2-515 limits assumed): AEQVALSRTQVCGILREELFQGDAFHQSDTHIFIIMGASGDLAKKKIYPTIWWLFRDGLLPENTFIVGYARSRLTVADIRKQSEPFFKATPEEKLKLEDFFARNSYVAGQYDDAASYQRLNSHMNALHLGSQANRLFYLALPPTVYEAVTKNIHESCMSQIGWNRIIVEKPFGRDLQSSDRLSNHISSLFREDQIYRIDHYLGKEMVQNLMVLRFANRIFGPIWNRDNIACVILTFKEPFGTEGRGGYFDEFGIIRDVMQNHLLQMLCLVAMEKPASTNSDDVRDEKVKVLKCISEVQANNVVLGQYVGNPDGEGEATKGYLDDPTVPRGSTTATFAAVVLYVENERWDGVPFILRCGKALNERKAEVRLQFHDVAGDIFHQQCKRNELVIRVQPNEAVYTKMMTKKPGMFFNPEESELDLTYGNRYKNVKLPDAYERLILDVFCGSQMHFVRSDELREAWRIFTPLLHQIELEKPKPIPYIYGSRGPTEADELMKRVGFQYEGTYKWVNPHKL

CC1=C(SC[C@H](NC(=O)CC[C@H](N)C(=O)O)C(=O)NCC(=O)O)C(=O)c2ccccc2C1=O [3-glutathionylmenadione, reference compound]
E1/2 (mV) [1]: -170 mV
% decrease in G6PD (G6PD [2]): 37 ± 13.0%

CC1=C(SCCC(N)C(=O)O)C(=O)c2ccccc2C1=O (centres unmarked) [3-homocysteinylmenadione, reference compound]
E1/2 (mV) [1]: -190 mV
% decrease in G6PD (G6PD [2]): 25 ± 9.7%

COC1=C(OC)C(=O)c2ccccc2C1=O [dimethoxynaphthoquinone, 2,3-dimethoxy-1,4-naphthoquinone]
E1/2 (mV) [1]: -250 mV
concentration of G6PD in synovial lining cells (mean ±SEM) ([3]; 25 mg/kg orally twice a week, six weeks, olive oil alone 15.4±1.9): 7.7±1.2
effect on all three enzyme activities: G6PD ([3]; summary in words for G6PD, 6PGL and 6PGD): greatly reduced
% decrease in G6PD (G6PD [2]): 49 ± 14.0%
concentration of 6PGL in synovial lining cells (mean ±SEM) [4]: negligible
concentration of 6PGD in synovial lining cells (mean ±SEM) [5]: 4.6±1.1

CC1=C(C)C(=O)c2ccccc2C1=O [dimethylnaphthoquinone, 2,3-dimethyl-1,4-naphthoquinone]
E1/2 (mV) [1]: -290 mV
% decrease in G6PD (G6PD [2]): 61%

CC1(S(=O)(=O)O)CC(=O)c2ccccc2C1=O (centres unmarked) [menadione bisulphite, 2-methyl-l,4-dioxotetralin-sulphonate]
lysosomal latency after injection (lysosomal latency; first patient): 13 % bound activity
lysosomal latency after injection (lysosomal latency; second patient): 31 % bound activity
G6PD activity after injection (G6PD [6]; first patient, before injection 423): 188 mean integrated extinction ×10^3 /10 min
G6PD activity after injection (G6PD [6]; second patient, before injection 245): 127 mean integrated extinction ×10^3 /10 min
redox potential (E1/8) measured in human plasma ([1]; human plasma): -640 mV
redox potential compared with menadione ([1]; versus menadione): higher redox potential than menadione
therapeutic efficacy (chronic RA): demonstrated
reactivity with thiols [7]: unreactive

CC12OC1C(=O)c1ccccc1C2=O (centres unmarked) [menadione epoxide]
G6PD activity in the desquamating cells ([8]; desquamating cells, as against 25.5 units in "rheumatoid" intact lining cells and 6 units in normal joints): 45.7 units
effect on G6PD activity ([8]; synovial lining cells): decrease both activities towards normal levels
6PGL activity in the desquamating cells ([9]; desquamating cells, despite very elevated G6PD): no equivalent increase
effect on 6PGL activity ([9]; synovial lining cells): decrease both activities towards normal levels
median overall difference in temperature expressed per day (group) (challenged joint; from two weeks after treatment until killed, control median 0.589 (0.308 to 0.687), p=0.04): 0.096 °C day
overall degree of inflammation in the challenged joint (challenged joint; one of the twelve treated rabbits (totally negative)): -
overall difference in temperature between challenged and unchallenged knees, expressed per day (single rabbit) (challenged joint; one treated rabbit, from two weeks after start of treatment until killed, 25 mg/kg bi-weekly by gavage, control rabbit 0.7110): 0.096 °C
inflammation assessed by temperature in vivo, visual inspection post mortem and histological examination (challenged joint; oral administration, established chronic inflammation): marked decrease in the inflammation

CC1=CC(=O)c2ccccc2C1=O [menadione, 2-methyl-1,4-naphthoquinone]
E1/2 (mV) [1]: -220 mV
redox potential (E1/8) ([1]; recorded against a standard calomel electrode, 90% ethanol-0.005M acetate buffer pH 4.0): -220 mV
% decrease in G6PD (G6PD [2]): 38 ± 6.9%
transfer of reducing equivalents to neotetrazolium chloride (neotetrazolium chloride): as effective as phenazine methosulphate
chronic inflammation assessed histologically and by enzyme activity in synovial lining cells (immune arthritis; versus control animals): marked diminution
effect on immune arthritis (immune arthritis): significantly ameliorates
effect on immune arthritis (immune arthritis; listed as Menadione): effective
solubility (solubility): lipid soluble

CC1=C(O)C(=O)c2ccccc2C1=O [phthiocol]
E1/2 (mV) [1]: -355 mV
% decrease in G6PD (G6PD [2]): 47 ± 11.5%
